The structures appear in SMILES notation. Where a chain is given by its changes, count along the chain named.

The record followed here is PMC2785468, “Androgen Receptor Mutations Associated with Androgen Insensitivity Syndrome: A High Content Analysis Approach Leading to Personalized Medicine” (PLoS ONE, 2009).

Holding throughout (assay type): cell-based
One data set concerns the target T1, wild type AR (Homo sapiens, UniProt P10275).
T1 construct: segments AR 624-919 (wild type or containing mutations F764L, R840C, and P766S); expressed in transfected cells; host or cells: HeLa, transient co-transfection
T1 sequence (P10275 624-919): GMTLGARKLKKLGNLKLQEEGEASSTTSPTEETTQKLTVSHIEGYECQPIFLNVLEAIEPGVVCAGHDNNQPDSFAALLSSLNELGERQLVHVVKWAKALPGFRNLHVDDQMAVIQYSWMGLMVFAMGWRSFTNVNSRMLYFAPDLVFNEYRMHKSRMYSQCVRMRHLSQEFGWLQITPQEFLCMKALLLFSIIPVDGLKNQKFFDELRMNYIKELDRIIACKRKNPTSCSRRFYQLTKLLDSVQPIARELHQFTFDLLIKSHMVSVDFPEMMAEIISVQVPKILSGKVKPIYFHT
T1 sequence (P10275 1-660 partner limits assumed): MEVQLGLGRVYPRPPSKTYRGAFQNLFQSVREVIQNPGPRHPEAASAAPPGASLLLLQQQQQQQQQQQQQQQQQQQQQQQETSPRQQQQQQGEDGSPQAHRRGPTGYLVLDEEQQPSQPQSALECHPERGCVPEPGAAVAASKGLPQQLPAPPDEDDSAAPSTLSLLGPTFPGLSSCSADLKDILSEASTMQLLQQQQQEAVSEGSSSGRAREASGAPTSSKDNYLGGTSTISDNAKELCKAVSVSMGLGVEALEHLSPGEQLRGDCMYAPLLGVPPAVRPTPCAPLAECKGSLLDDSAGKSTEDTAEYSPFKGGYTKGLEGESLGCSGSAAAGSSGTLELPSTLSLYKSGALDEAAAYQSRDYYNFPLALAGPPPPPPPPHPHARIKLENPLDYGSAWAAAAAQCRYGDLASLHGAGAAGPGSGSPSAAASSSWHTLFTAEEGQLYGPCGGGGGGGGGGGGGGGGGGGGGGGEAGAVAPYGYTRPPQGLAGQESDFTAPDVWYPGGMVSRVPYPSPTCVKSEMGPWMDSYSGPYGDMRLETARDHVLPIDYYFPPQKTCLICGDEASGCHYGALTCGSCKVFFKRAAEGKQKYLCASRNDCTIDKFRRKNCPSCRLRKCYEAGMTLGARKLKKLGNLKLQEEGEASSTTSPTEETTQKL
To be noted: ligands at 0.2–200 nM, 24 h. Here is the method: (§1) An interaction between COOH terminal AF2 (activation function 2) and NH2 terminal sequence F^23XXLF^27 is an important step toward the activation of AR [30]. The NC-TDI was measured using the reagents of the CheckMate™/Flexi® Vector Mammalian Two-Hybrid System, Promega (Madison, WI). […] One day before transfection, 1.5×10^6 Hela cells were seeded into a 60 mm dish. […] After 12 hours of transfection, cells were trypsinized and equally seeded into nine wells of a 12 well plate, with one well treated with vehicle and others with various concentration of different ligand. After 24 h of treatment, luciferase activity was assayed with the Promega Dual Glo assay kit, using a luminometer (PerkinElmer). Data represent the average±SD of three independent experiments, are expressed as fold-induction compared with negative control, and represent the units of firefly luciferase corrected for the units of renilla luciferase detected in the same plate.
as §1, with “Figure 3 NH2-COOH-terminal domain” for “An”, “(NC-TDI) assay.” for “between COOH terminal AF2 (activation function 2) and NH2 terminal sequence F^23XXLF^27 is an important step toward the activation of AR [30]. The NC-TDI was measured using the reagents of the CheckMate™/Flexi® Vector Mammalian Two-Hybrid System, Promega (Madison, WI).”, “HeLa” for “Hela”, “c/w” for “compared with”

The target of a further data set is T2, AR-P766S (Homo sapiens, UniProt P10275, P767S).
T2 construct: segments AR 624-919 (wild type or containing mutations F764L, R840C, and P766S); expressed in transfected cells; host or cells: HeLa, transient co-transfection
T2 sequence (P10275 624-919 P767S): T1 sequence (P10275 624-919) with P144S
T2 sequence (P10275 1-660 partner limits assumed): T1 sequence (P10275 1-660 partner limits assumed)
The settings on record: doses of 200 nM, compared with wt AR at 0.2 nM. Here is the method:
as §1
as §1, with “Figure 3 NH2-COOH-terminal domain” for “An”, “(NC-TDI) assay.” for “between COOH terminal AF2 (activation function 2) and NH2 terminal sequence F^23XXLF^27 is an important step toward the activation of AR [30]. The NC-TDI was measured using the reagents of the CheckMate™/Flexi® Vector Mammalian Two-Hybrid System, Promega (Madison, WI).”, “HeLa” for “Hela”, “c/w” for “compared with”

The target of a further data set is T3, AR-F764L (Homo sapiens, UniProt P10275, F765L).
T3 construct: segments AR 624-919 (wild type or containing mutations F764L, R840C, and P766S); expressed in transfected cells; host or cells: HeLa, transient co-transfection
T3 sequence (P10275 624-919 F765L): T1 sequence (P10275 624-919) with F142L
T3 sequence (P10275 1-660 partner limits assumed): T1 sequence (P10275 1-660 partner limits assumed)
The method, then:
as §1
as §1, with “Figure 3 NH2-COOH-terminal domain” for “An”, “(NC-TDI) assay.” for “between COOH terminal AF2 (activation function 2) and NH2 terminal sequence F^23XXLF^27 is an important step toward the activation of AR [30]. The NC-TDI was measured using the reagents of the CheckMate™/Flexi® Vector Mammalian Two-Hybrid System, Promega (Madison, WI).”, “HeLa” for “Hela”, “c/w” for “compared with”

The target of a further data set is T4, AR-R840C (Homo sapiens, UniProt P10275, R841C).
T4 construct: segments AR 624-919 (wild type or containing mutations F764L, R840C, and P766S); expressed in transfected cells; host or cells: HeLa, transient co-transfection
T4 sequence (P10275 624-919 R841C): T1 sequence (P10275 624-919) with R218C
T4 sequence (P10275 1-660 partner limits assumed): T1 sequence (P10275 1-660 partner limits assumed)
The method, then: as §1
as §1, with “Figure 3 NH2-COOH-terminal domain” for “An”, “(NC-TDI) assay.” for “between COOH terminal AF2 (activation function 2) and NH2 terminal sequence F^23XXLF^27 is an important step toward the activation of AR [30]. The NC-TDI was measured using the reagents of the CheckMate™/Flexi® Vector Mammalian Two-Hybrid System, Promega (Madison, WI).”, “HeLa” for “Hela”, “c/w” for “compared with”

Turning to `C[C@@H]1CC2=CC(=O)CC[C@@H]2[C@H]2CC[C@@]3(C)[C@@H](CC[C@]3(C)O)[C@@H]21` [Mb, Mibolerone], the “NC-TDI maximal response (luciferase activity)” value at wild type AR was 7.1 fold increase. Besides, the “NC-TDI rescue (in words)” value at AR-P766S is “rescue the NC-TDI response to the levels observed with wt AR”. In addition, at AR-F764L (at 0.2 nM), the “NC-TDI, % of wild type receptor” value worked out at 10%. The NC-TDI response on AR-F764L (at 200 nM) was determined as 3.1 fold. Further, the “concentration at which the NC-TDI response saturated” value on AR-R840C is 2 nM.
